Test [1] has as its system HSP72 induction (product of HSF1 transcriptional activity) in SK-OV-3 cells. Briefly: Cell-based ELISA (Cellisa) for HSP72 expression after 17-AAG. Also noted: species or system human. As to conditions: SK-OV-3 ovarian cancer cell line; summary of Table 1. On the technique in general: In an ELISA, binding on a coated surface is turned into a signal by an enzyme label.
Description: Prior to use, the cells were analyzed by short tandem repeat (STR) profiling. Polymorphic STR loci were amplified using a polymerase chain reaction (PCR) primer set. The PCR product (each locus being labelled with a different fluorophore) was analyzed simultaneously with size standards using automated fluorescent detection. The number of repeats at 10 different loci (as recommended by the American Type Culture Collection, ATCC) was used to define the STR profile and this was cross-referenced with online databases to confirm authenticity. […] The cells were free of mycoplasma contamination as determined by a sensitive nested PCR protocol (Venor GeM kit, Minerva Biolabs, Germany). Cells were grown in DMEM/10% FCS, 2 mM glutamine and nonessential amino acids in 5% CO2.
Cell-Based ELISA (Cellisa) for HSP72 Expression
To follow HSP72 protein expression, a product of HSF1 transcriptional activity, the Cellisa was developed. […] The medium was removed and cells were fixed with fixing solution (4% paraformaldehyde, 0.3% TritonX-100 in PBS buffer) for 30 min at 4° C. The plates were then washed with 0.1% Tween-20/deionized water, before blocking with 5% milk for 30 mins at 37° C. […] Following 4× washes, the plates were incubated with europium-labelled anti-mouse antibody (0.6 μg/mL) in Delfia assay buffer (Perkin Elmer) for 1 h at 37° C. […]
Test [2] concerns SK-OV-3 ovarian cancer cell line. Briefly: cells. It is filed as cell-based. As to conditions: Homo sapiens, SK-OV-3, 96 h, read-out: SK-OV-3 pGI50 ± SEM (n) (converted).
Description: Cells were grown in DMEM/10% FCS, 2 mM glutamine and nonessential amino acids in 5% CO2.
In Vitro Cell Viability Assay
The cell titer blue viability (CTB) (Promega) assay provides a homogenous, fluorometric method for estimating the number of viable cells. It uses the dark blue indicator dye resazurin to measure the metabolic capacity of cells which is an indicator of cell viability. Viable cells are able to reduce resazurin into resorufin (pink), which is highly fluorescent. […] Compounds (at a range of concentrations) were added using the ECHO 550 liquid handler (Labcyte, USA) and then left at 37° C. for 96 h. Titre blue reagent was added to each well and left at 37° C. for 3-4 h. Fluorescence was measured using the Envision machine (Perkin Elmer, UK). The 50% growth inhibitory concentration (GI50) was determined by fitting the data to a dose-response curve without limits using non-linear regression. Each concentration was tested twice.

Regarding `[2H]C([2H])([2H])C([2H])([2H])N1CCN(Cc2ccc3cc(C(=O)Nc4cc(NC(=O)c5ccc6c(c5)OCCO6)ccc4F)ccc3n2)CC1` [Compound A, N-(5-(2,3-Dihydrobenzo[b][1,4]dioxine-6-carboxamido)-2-fluorophenyl)-2-((4-ethyl-d5-piperazin-1-yl)methyl)quinoline-6-carboxamide], the “cellular activity (in words)” value in test [1] is “potent cellular activity”.
For the compound `[2H]C1([2H])N(CC)C([2H])([2H])C([2H])([2H])N(Cc2ccc3cc(C(=O)Nc4cc(NC(=O)c5ccc6c(c5)OCCO6)ccc4F)ccc3n2)C1([2H])[2H]` [Compound B, N-(5-(2,3-Dihydrobenzo[b][1,4]dioxine-6-carboxamido)-2-fluorophenyl)-2-((4-ethyl-piperazin-d8-1-yl)methyl)quinoline-6-carboxamide], in test [2], the GI50 was 18.2 nM.
Still for that read-out and setting: next, `[2H]C1([2H])Oc2ccc(C(=O)Nc3ccc(F)c(NC(=O)c4ccc5nc(CN6CCN(CC)CC6)ccc5c4)c3)cc2OC1([2H])[2H]` [Compound C, N-(5-(2,3-Dihydrobenzo-d4-[b][1,4]dioxine-6-carboxamido)-2-fluorophenyl)-2-((4-ethylpiperazin-1-yl)methyl)quinoline-6-carboxamide]: 11.5 nM.

These data come from US11814370B2, “Deuterated N-(5-(2,3-dihydrobenzo[b][1,4]dioxine-6-carboxamido)-2-fluorophenyl)-2-((4-ethylpiperazin-1-yl)methyl)quinoline-6-carboxamide” (priority 2016, dated 2023).
